These compounds were tested against T1, K-Ras G12C (Homo sapiens, UniProt P01116, G12C) (assay: CAF assay (% CAF; method in Example 7, not in this part)). Settings: 10 uM compound, 1 h incubation.
T1 construct: This protein contained 188 amino acids in total, including an N-terminal 6-Histidine tag; made in house; host or cells: E. coli BL21
Assay type: binding

Compound	% CAF @ 10 uM, 1h
C=CC(=O)N1C[C@H](C)N(c2nc(=O)n3c4c(c(-c5ccc(F)cc5F)c(Cl)cc24)SC[C@@H]3CN2CCn3c(nnc3C(F)(F)F)C2)C[C@H]1C [Example 468, (3S)-7-((2S,5R)-4-acryloyl-2,5-dimethylpiperazin-1-yl)-9-chloro-10-(2,4-difluorophenyl)-3-((3-(trifluoromethyl)-5,6-dihydro-[1,2,4]triazolo[4,3-a]pyrazin-7(8H)-yl)methyl)-2H-[1,4]thiazino[2,3,4-ij]quinazolin-5(3H)-one]	68.6%
C=CC(=O)N1CCN(c2nc(=O)n3c4c(c(-c5cc(F)c(F)cc5F)c(Cl)cc24)SC[C@@H]3CN2CCC3(CC2)COC3)[C@@H](C)C1 [Example 469, (3S)-3-(2-oxa-7-azaspiro[3.5]nonan-7-ylmethyl)-7-((S)-4-acryloyl-2-methylpiperazin-1-yl)-9-chloro-10-(2,4,5-trifluorophenyl)-2H-[1,4]thiazino[2,3,4-ij]quinazolin-5(3H)-one]	57.8%
C=CC(=O)N1CCN(c2nc(=O)n3c4c(c(-c5cc(Cl)c(F)cc5F)c(C(F)(F)F)cc24)SC[C@H]3COCOC)[C@@H](C)C1 [Example 470, (3R)-7-((S)-4-acryloyl-2-methylpiperazin-1-yl)-10-(5-chloro-2,4-difluorophenyl)-3-((methoxymethoxy)methyl)-9-(trifluoromethyl)-2H-[1,4]thiazino[2,3,4-ij]quinazolin-5(3H)-one]	35%
C=CC(=O)N1CCN(c2nc(=O)n3c4c(c(-c5cc(F)c(F)cc5F)c(C(F)(F)F)cc24)SC[C@H]3COCOC)[C@@H](C)C1 [Example 471, (3R)-7-((S)-4-acryloyl-2-methylpiperazin-1-yl)-3-((methoxymethoxy)methyl)-9-(trifluoromethyl)-10-(2,4,5-trifluorophenyl)-2H-[1,4]thiazino[2,3,4-ij]quinazolin-5(3H)-one]	23.9%
C=CC(=O)N1CCN(c2nc(=O)n3c4c(c(-c5ccc(F)cc5F)c(Cl)cc24)SC[C@@H]3CN2CCC3(CC2)COC3)[C@@H](C)C1 [Example 472, (3S)-3-(2-oxa-7-azaspiro[3.5]nonan-7-ylmethyl)-7-((S)-4-acryloyl-2-methylpiperazin-1-yl)-9-chloro-10-(2,4-difluorophenyl)-2H-[1,4]thiazino[2,3,4-ij]quinazolin-5(3H)-one]	72.3%
C=CC(=O)N1C[C@H](C)N(c2nc(=O)n3c4c(c(-c5ccc(F)cc5)c(Cl)cc24)SC[C@@H]3CN2CCC3(CC2)COC3)C[C@H]1C [Example 473, (S)-3-(2-oxa-7-azaspiro[3.5]nonan-7-ylmethyl)-7-((2S,5R)-4-acryloyl-2,5-dimethylpiperazin-1-yl)-9-chloro-10-(4-fluorophenyl)-2H-[1,4]thiazino[2,3,4-ij]quinazolin-5(3H)-one]	65.8%
C=CC(=O)N1CCN(c2nc(=O)n3c4c(c(-c5ccc(F)c6cccnc56)c(Cl)cc24)SC[C@@H]3COC)[C@@H](C)C1 [Example 474, (3S)-7-((S)-4-acryloyl-2-methylpiperazin-1-yl)-9-chloro-10-(5-fluoroquinolin-8-yl)-3-(methoxymethyl)-2,3-dihydro-5H-[1,4]thiazino[2,3,4-ij]quinazolin-5-one]	73.3%
C=CC(=O)N1C[C@H](C)N(c2nc(=O)n3c4c(c(-c5cc(F)c(F)cc5F)c(Cl)cc24)SC[C@@H]3CC2CCN(C3CC3)CC2)C[C@H]1C [Example 475, (3S)-7-((2S,5R)-4-acryloyl-2,5-dimethylpiperazin-1-yl)-9-chloro-3-((1-cyclopropylpiperidin-4-yl)methyl)-10-(2,4,5-trifluorophenyl)-2H-[1,4]thiazino[2,3,4-ij]quinazolin-5(3H)-one]	49.8%

From patent US20230107642A1 (Erasca, Inc., priority 2020, published 2023)
